According to ChEMBL document CHEMBL1240317, “Probing cell-division phenotype space and Polo-like kinase function using small molecules” (Nat Chem Biol, 2006):
pEC50: −log10 of the molar value. Active and inactive are the calls of the source.

How the values were obtained:
Type in all cases: functional, cell-based
BSC-1 [1] = test: Induction of deffects in mitotic spindle in african green monkey BSC1 cells at 20 uM after 4 hrs by immunocytochemistry; settings: Chlorocebus aethiops
BSC-1 [2] = test: Antimitotic activity against african green monkey BSC1 cells assessed as induction of chromosome alignment deffects at 20 uM by immunofluorescence microscopy; settings: Chlorocebus aethiops
BSC-1 [3] = test: Antimitotic activity against african green monkey BSC1 cells assessed as induction of sphere like organization at 2.5 uM by immunofluorescence microscopy; settings: Chlorocebus aethiops
BSC-1 [4] = test: Antimitotic activity against african green monkey BSC1 cells assessed as induction of monopolar spindles at 20 uM by immunofluorescence microscopy; settings: Chlorocebus aethiops
U2OS [5] = test: Reduction in gamma-tubulin level in centrosomes in human U2OS cells at 250 uM after 4 hrs by immunofluorescence
U2OS [6] = test: Disruption of interphase microtubule organization in human U2OS cells at 250 uM after 4 hrs by immunofluorescence
BSC-1 [7] = test: Antimitotic activity against african green monkey BSC1 cells assessed as induction of monopolar spindles and spindle pole deffects at 20 uM by immunofluorescence microscopy; settings: Chlorocebus aethiops
BSC-1 [8] = test: Induction of reduced mitotic index in african green monkey BSC1 cells at 20 uM after 4 hrs by immunocytochemistry; settings: Chlorocebus aethiops
BSC-1 [9] = test: Induction of severe microtubule disruption in african green monkey BSC1 cells at 20 uM after 4 hrs by immunocytochemistry; settings: Chlorocebus aethiops
BSC-1 [10] = test: Antimitotic activity against african green monkey BSC1 cells assessed as induction of monopolar spindles and two separated astral microtubule array at 20 uM by immunofluorescence microscopy; settings: Chlorocebus aethiops
BSC-1 [11] = test: Antimitotic activity against african green monkey BSC1 cells assessed as induction of normal spindles at 2.5 uM by immunofluorescence microscopy; settings: Chlorocebus aethiops
BSC-1 [12] = test: Induction of monopolar mitotic spindles in african green monkey BSC1 cells assessed as kinesin-5 (Eg5) inhibition at 100 uM after 4 hrs; settings: Chlorocebus aethiops
BSC-1 [13] = test: Antimitotic activity against african green monkey BSC1 cells assessed as induction of monopolar spindles by immunofluorescence microscopy; settings: Chlorocebus aethiops
BSC-1 [14] = test: Induction of monopolar mitotic spindles in african green monkey BSC1 cells assessed as percentage of monopolar cells with two centrosomes at 20 uM after 4 hrs; settings: Chlorocebus aethiops
BSC-1 [15] = test: Antimitotic activity against african green monkey BSC1 cells assessed as induction of bipolar spindles with decrease in pole to pole distance at 20 uM by immunofluorescence microscopy; settings: Chlorocebus aethiops

SMILES	Activity (BSC-1 [1])	Activity (BSC-1 [8])	Activity (BSC-1 [9])	also measured
O=C(c1ccccc1)c1ccccc1Nc1nc(Nc2ccc3c(c2)OCO3)ncc1[N+](=O)[O-]	Active	–	–	Activity (BSC-1 [2]): Active
CN1CCN(c2ccc(Nc3ncc([N+](=O)[O-])c(Nc4ccccc4C(=O)c4ccccc4)n3)cc2)CC1	Active	–	–	Activity (BSC-1 [3]): Active; Activity (BSC-1 [4]): Active
COc1cc(OC)c(/C=C/S(=O)(=O)Cc2ccc(OC)c(NCC(=O)O)c2)c(OC)c1	–	–	–	Activity (U2OS [5]): inactive; Activity (U2OS [6]): inactive
CCCCNc1nc(Nc2ccc(N3CCN(C)CC3)cc2)ncc1[N+](=O)[O-]	–	Active	–	Activity (BSC-1 [7]): Active
O=[N+]([O-])c1cnc(NC2CCCC2)nc1Sc1cccc(Cl)c1	Active	Active	Active	–
CC(=O)Nc1ccc(Nc2ncc([N+](=O)[O-])c(Nc3ccc4ncsc4c3)n2)cc1	Active	Active	Active	–
c1ccc2cc(Nc3nccc(Nc4ccc5c(c4)CCC5)n3)ccc2c1	Active	Active	Active	–
c1cc(Nc2ccc3c(c2)CCC3)nc(Nc2ccc3ncsc3c2)n1	Active	–	–	Activity (BSC-1 [10]): Active; Activity (BSC-1 [11]): Active; Activity (BSC-1 [12]): Active; pEC50 (BSC-1 [13]): 4.52; Activity (BSC-1 [14]): Active
O=C(c1ccccc1)c1ccccc1Nc1nc(Nc2ccc3ccccc3c2)ncc1[N+](=O)[O-]	Active	Active	Active	–
CC(C)(C)c1ccc(Nc2ncc([N+](=O)[O-])c(Sc3cccc(Cl)c3)n2)cc1	Active	Active	Active	–
CC(=O)Nc1ccc(Nc2ccnc(NCc3cccs3)n2)cc1	Active	Active	Active	–
O=[N+]([O-])c1cnc(NC2CCCC2)nc1Nc1ccc2ncsc2c1	Active	Active	Active	–
O=[N+]([O-])c1cnc(NC(CO)Cc2ccccc2)nc1Nc1ccc(Cl)c(Cl)c1 (stereo unspecified)	Active	Active	Active	–
CC(=O)Nc1ccc(Nc2ncc([N+](=O)[O-])c(Sc3cccc(Cl)c3)n2)cc1	Active	Active	Active	–
CCN(CC)CCCC(C)Nc1ncc([N+](=O)[O-])c(Nc2ccc3ncsc3c2)n1 (stereo unspecified)	Active	Active	Active	–
CN1CCN(c2nccc(Nc3ccc4c(c3)OCO4)n2)CC1	Active	Active	Active	–
O=[N+]([O-])c1cnc(NC2CCCCCC2)nc1Nc1ccc2ncsc2c1	Active	Active	Active	–
CCCCNc1nc(Nc2ccc3ccccc3c2)ncc1[N+](=O)[O-]	Active	Active	Active	–
Clc1ccc(Nc2nccc(Nc3ccc4c(c3)OCO4)n2)cc1Cl	Active	Active	Active	–
O=[N+]([O-])c1cnc(Nc2ccc3[nH]ccc3c2)nc1Nc1ccc(Cl)c(Cl)c1	Active	Active	Active	–
c1cc(Nc2ccc3c(c2)OCO3)nc(Nc2ccc3c(c2)CCC3)n1	Active	–	–	Activity (BSC-1 [15]): Active

SMILES	Activity (BSC-1 [1])	Activity (BSC-1 [8])	Activity (BSC-1 [9])	also measured
NC(=O)c1ccccc1Nc1nc(NC2CCCCCC2)ncc1[N+](=O)[O-]	Active	Active	Active	–
CN1CCN(c2ccnc(NCc3cccs3)n2)CC1	Active	Active	Active	–
CN1CCN(c2ncc([N+](=O)[O-])c(Nc3ccccc3C(=O)c3ccccc3)n2)CC1	Active	Active	Active	–
O=[N+]([O-])c1cnc(NC(CO)Cc2ccccc2)nc1Nc1ccc2ncsc2c1 (stereo unspecified)	Active	Active	Active	–
OCC(Cc1ccccc1)Nc1nccc(Nc2ccc3c(c2)OCO3)n1 (stereo unspecified)	Active	Active	Active	–
NC(=O)c1ccccc1Nc1nc(NCc2cccs2)ncc1[N+](=O)[O-]	Active	Active	Active	–
O=[N+]([O-])c1cnc(Nc2ccc3[nH]ccc3c2)nc1NC1CCCC1	Active	Active	Active	–
OCC1CCCN1c1nccc(Nc2ccc3c(c2)OCO3)n1 (stereo unspecified)	Active	Active	Active	–
O=C(c1ccccc1)c1ccccc1Nc1nc(Nc2ccc3c(c2)CCC3)ncc1[N+](=O)[O-]	Active	Active	Active	–
O=C(c1ccccc1)c1ccccc1Nc1ncc([N+](=O)[O-])c(Nc2ccc(Cl)c(Cl)c2)n1	Active	Active	Active	–
O=C(c1ccccc1)c1ccccc1Nc1nc(Nc2ccc3ncsc3c2)ncc1[N+](=O)[O-]	Active	Active	Active	–
CC(C)(Nc1ncc([N+](=O)[O-])c(Nc2ccc3ncsc3c2)n1)c1ccccc1	Active	Active	Active	–
CCCCNc1nc(Nc2ccc(C(C)(C)C)cc2)ncc1[N+](=O)[O-]	Active	Active	Active	–
CC(=O)Nc1ccc(Nc2nccc(Nc3ccc4c(c3)CCC4)n2)cc1	Active	Active	Active	–
CCCCNc1nc(Nc2ccc3[nH]ccc3c2)ncc1[N+](=O)[O-]	Active	Active	Active	–
O=[N+]([O-])c1cnc(NCc2cccs2)nc1Nc1ccc(Cl)c(Cl)c1	Active	Active	Active	–
c1csc(CNc2nccc(Nc3ccc4c(c3)OCO4)n2)c1	Active	–	–	Activity (BSC-1 [2]): Active
NC(=O)c1ccccc1Nc1nc(NC2CCCC2)ncc1[N+](=O)[O-]	Active	Active	Active	–
c1ccc(-c2nccn2-c2ccnc(NC3CCCC3)n2)cc1	Active	Active	Active	–
CC(=O)Nc1ccc(Nc2ncc([N+](=O)[O-])c(Nc3ccc(Cl)c(Cl)c3)n2)cc1	Active	Active	Active	–
